In brackets after ≈: the same amount, converted by molar mass.
How the values were obtained:
[1] = Plasma stability, dog plasma (HPLC-MS); format: in vitro ADME; conditions: 2 μM, 37° C.
Procedure: (§1) Plasma stability determination of the test compounds in rat, dog, cynomolgus monkey and human plasma is performed using HPLC-MS. For rat, incubations are carried out in 96-well polypropylene plates in 5 aliquots of 70 μL each (one for each time point). […] Five time points are analyzed (0, 15, 120, 480 and 1440 min). For dog, monkey and human, test compounds (2 μM, final solvent concentration 1%) were also incubated at 37° C. and analyzed at five time points (0, 10, 30, 60 and 120 min). All incubations are performed in duplicates. The samples are analyzed by HPLC-MS. The percentage of parent compound remaining after incubation in plasma is determined.

[2] = Plasma stability, human plasma (HPLC-MS); format: in vitro ADME; conditions: 2 μM, 37° C.
Procedure: as §1, with “For dog, monkey and human, test compounds (2 μM, final solvent concentration 1%) were also incubated at 37° C. and analyzed at five time points (0, 10, 30, 60 and 120 min).” left out

[3] = Plasma stability, rat plasma (HPLC-MS); format: in vitro ADME; conditions: 10 μM, 37° C.
Procedure: as §1

[4] = Plasma stability, cynomolgus monkey plasma (HPLC-MS); format: in vitro ADME; conditions: 2 μM, 37° C.
Procedure: as §1, with “For dog, monkey and human, test compounds (2 μM, final solvent concentration 1%) were also incubated at 37° C. and analyzed at five time points (0, 10, 30, 60 and 120 min).” left out

[5] = Clinical observations for dogs in pharmacokinetic studies; format: in vivo, Beagle dogs; conditions: right leg test article
Procedure: Weight monitoring was done every week.
The dose formulation (concentration—400 mg base equivalents/ml in sesame oil+1% benzyl alcohol, unless otherwise specified) was administered via deep intramuscularly (unless otherwise specified). The injection vehicle was also dosed via deep intramuscular route (unless otherwise specified) on contralateral site of each animal at study initiation. The animals were sedated with Propofol at 6 mg/kg via IV administration. Following sedation hair was carefully removed from around the injection site and the area gently cleaned. Care will be taken to avoid irritating skin during shaving and cleaning the injection site. Then dogs will be dosed with deep IM administration. At least 2.5 cm depth from the surface into the central aspect of the quadriceps or biceps femoris muscle, by angling the needle toward the femur. If the needle hits the femur, simply draws back slightly and then inject. The dose volume will be determined by the animals' body weight collected on the morning of dosing day. For repeated administration, the injection sites may be rotated to minimize tissue injury.

[6] = Polymorph screening of solid state drug substances; format: physicochemical; conditions: for Dry method and appearance: after stirring at 50 °C for 72 hours; for XRPD results (Dried): dried solid
[7] = Solubility determination in oil (cottonseed oil, sesame oil), HPLC
Procedure: A known amount of test substance (˜40 mg) was weighed into the vial, 100 μL of oil was added and heated to 60° C. and then system was slurried to reach equilibrium. […] Then the clear solution was placed at room temperature (25° C.) for 24 h to confirm whether there was solid precipitation. Extra oil was added into the vial once compound precipitated out and then the system was re-equilibrated at 1000 rpm at room temperature (25° C.). Final concentration was determined by HPLC method as described below in Table 6a and 6b.

[8] = Equilibrium solubility in water (Table 10); conditions: for solubility thermodynamic: water, 40 °C, thermodynamic from solid
[9] = Heating Temp. 60 °C, Obs. Temp. 40 °C
[10] = Heating Temp. 60 °C, Obs. Temp. 25 °C
[11] = Heating Temp. 40 °C, Obs. Temp. 40 °C

## CCCCCCCCCCCC(=O)OCN1C(=O)CCc2ccc(OCCCCN3CCN(c4cccc(Cl)c4Cl)CC3)cc21 [Aripiprazole Lauroxil, reference compound]
[1]
  % remaining at time point in minutes, 0 min: 100%
[2]
  % remaining at time point in minutes, 0 min: 100%
[2]; 120 min
  % remaining at time point in minutes, 120 min: 80%
[3]
  % remaining at time point in minutes, 0 min: 100%
  % remaining at time point in minutes, 15 min: 84%
  % remaining at time point in minutes, 1440 min: 46%
[4]
  % remaining at time point in minutes, 0 min: 100%

## C=C1CC[C@@]2(O)C3Cc4ccc(OC(=O)CCCCCCC/C=C/CCCCCCCC)c5c4[C@@]2(CCN3CC2CC2)[C@H]1O5 [Compound 15, (4aS,7aS,12bS)-3-(cyclopropylmethyl)-4a-hydroxy-7-methylene-2,3,4,4a,5,6,7,7a-octahydro-1H-4,12-methanobenzofuro[3,2-e]isoquinolin-9-yl (E)-octadec-9-enoate]
[1]
  % remaining at time point in minutes, 0 min: 100%
[2]
  % remaining at time point in minutes, 0 min: 100%
[2]; 1440 min
  % remaining at time point in minutes, 1440 min: 109.6%
[3]
  % remaining at time point in minutes, 0 min: 100%
  % remaining at time point in minutes, 15 min: 72%
  % remaining at time point in minutes, 480 min: 52%
  % remaining at time point in minutes, 1440 min: 35%
[4]
  % remaining at time point in minutes, 0 min: 100%
[5]; 48 mg/kg, Day 35, dogs D1001, D1002, D1003
  Clinical observations, R-TA: rashes subside on the leg
[5]; Day 7, dogs D1501, D1502, D1503, dose not given
  Clinical observations, R-TA: Swelling 8 * 4 cm

## CCCCCCCCCCCCCCCCOC(=O)Oc1ccc2c3c1O[C@H]1C(=O)CC[C@@]4(O)C(C2)N(CC2CC2)CC[C@]314 [Compound 21, (4aS,7aR,12bS)-3-(cyclopropylmethyl)-4a-hydroxy-7-oxo-2,3,4,4a,5,6,7,7a-octahydro-1H-4,12-methanobenzofuro[3,2-e]isoquinolin-9-yl hexadecyl carbonate]
[3]
  % remaining at time point in minutes, 0 min: 100%
[6]; Acetone
  Dry method and appearance: Evaporation/white powder
  XRPD results (Dried): Pattern A
[6]; EtOAc
  Dry method and appearance: Evaporation/white powder
  XRPD results (Dried): Pattern A
[6]; Heptane
  Dry method and appearance: Evaporation/white powder
  XRPD results (Dried): Pattern A
[6]; Isopropanol
  Dry method and appearance: Evaporation/white powder
  XRPD results (Dried): Pattern A
[6]; MTBE
  Dry method and appearance: Evaporation/white powder
  XRPD results (Dried): Pattern A
[7]; [9]
  Approximate Solubility in Excipient: Cottonseed oil: 101 to 134.8 mg/mL
  Approximate Solubility in Excipient: Sesame oil: 101 to 134.5 mg/mL

## CCCCCCCC/C=C/CCCCCCCC(=O)OCOc1ccc2c3c1O[C@H]1C(=O)CC[C@@]4(O)C(C2)N(CC2CC2)CC[C@]314 [Compound 26, (((4aS,7aR,12bS)-3-(cyclopropylmethyl)-4a-hydroxy-7-oxo-2,3,4,4a,5,6,7,7a-octahydro-1H-4,12-methanobenzofuro[3,2-e]isoquinolin-9-yl)oxy)methyl (E)-octadec-9-enoate]
[7]; [10]
  Approximate Solubility in Excipient: Cottonseed oil: 204.3 to 239 mg/mL

## C=C1CC[C@@]2(O)C3Cc4ccc(OC(=O)CCCCCCC/C=C\C/C=C\CCCCC)c5c4[C@@]2(CCN3CC2CC2)[C@H]1O5 [Compound 37, (4aS,7aS,12bS)-3-(cyclopropylmethyl)-4a-hydroxy-7-methylene-2,3,4,4a,5,6,7,7a-octahydro-1H-4,12-methanobenzofuro[3,2-e]isoquinolin-9-yl (9Z,12Z)-octadeca-9,12-dienoate]
[7]; [10]
  Approximate Solubility in Excipient: Cottonseed oil: 68.5 to 82 mg/mL

## C=C1CC[C@@]2(O)C3Cc4ccc(OC(=O)CCC5CCCC5)c5c4[C@@]2(CCN3CC2CC2)[C@H]1O5 [Compound 39, (4aS,7aS,12bS)-3-(cyclopropylmethyl)-4a-hydroxy-7-methylene-2,3,4,4a,5,6,7,7a-octahydro-1H-4,12-methanobenzofuro[3,2-e]isoquinolin-9-yl 3-cyclopentylpropanoate]
[7]; [11]
  Approximate Solubility in Excipient: Cottonseed oil: 225 to 402.2 mg/mL

## CCCCC/C=C\C/C=C\CCCCCCCC(=O)Oc1ccc2c3c1O[C@H]1C(=O)CC[C@@]4(O)C(C2)N(CC2CC2)CC[C@]314 [Compound 53, (4aS,7aR,12bS)-3-(cyclopropylmethyl)-4a-hydroxy-7-oxo-2,3,4,4a,5,6,7,7a-octahydro-1H-4,12-methanobenzofuro[3,2-e]isoquinolin-9-yl (9Z,12Z)-octadeca-9,12-di.enoate]
[3]
  % remaining at time point in minutes, 0 min: 100%
  % remaining at time point in minutes, 480 min: 7.3%
  % remaining at time point in minutes, 1440 min: 1.9%
[7]; [10]
  Approximate Solubility in Excipient: Cottonseed oil: >408.5 mg/mL
  Approximate Solubility in Excipient: Sesame oil: >401.9 mg/mL
[7]; [9]
  Approximate Solubility in Excipient: Sesame oil: >406.3 mg/mL

## CCCCCCCCCCCCCCCC(=O)Oc1ccc2c3c1O[C@H]1C(=O)CC[C@@]4(O)C(C2)N(CC2CC2)CC[C@]314 [Compound 55, (4aS,7aR,12bS)-3-(cyclopropylmethyl)-4a-hydroxy-7-oxo-2,3,4,4a,5,6,7,7a-octahydro-1H-4,12-methanobenzofuro[3,2-e]isoquinolin-9-yl palmitate]
[3]
  % remaining at time point in minutes, 0 min: 100%
[6]; Acetone
  Dry method and appearance: Evaporation/white powder
  XRPD results (Dried): Pattern B
[6]; EtOAc
  Dry method and appearance: Evaporation/white powder
  XRPD results (Dried): Pattern B
[6]; Heptane
  Dry method and appearance: Evaporation/white powder
  XRPD results (Dried): Pattern B
[6]; Isopropanol
  Dry method and appearance: Evaporation/white powder
  XRPD results (Dried): Pattern B
[6]; MTBE
  Dry method and appearance: Evaporation/white powder
  XRPD results (Dried): Pattern B

## C=C1CC[C@@]2(O)C3Cc4ccc(OC(=O)CCCCCCCCCCCCCCC)c5c4[C@@]2(CCN3CC2CC2)[C@H]1O5 [Compound 56, (4aS,7aS,12bS)-3-(cyclopropylmethyl)-4a-hydroxy-7-methylene-2,3,4,4a,5,6,7,7a-octahydro-1H-4,12-methanobenzofuro[3,2-e]isoquinolin-9-yl palmitate, reference compound]
[3]
  % remaining at time point in minutes, 0 min: 100%
[8]
  solubility thermodynamic: 0.0066 mg/mL (≈ 11.4 µM)

## C=C1CC[C@@]2(O)C3Cc4ccc(OC(=O)CCCCCCCCCCC)c5c4[C@@]2(CCN3CC2CC2)[C@H]1O5 [Compound 59, (4aS,7aS,12bS)-3-(cyclopropylmethyl)-4a-hydroxy-7-methylene-2,3,4,4a,5,6,7,7a-octahydro-1H-4,12-methanobenzofuro[3,2-e]isoquinolin-9-yl dodecanoate, reference compound]
[3]
  % remaining at time point in minutes, 0 min: 100%
  % remaining at time point in minutes, 15 min: 5.9%
  % remaining at time point in minutes, 480 min: 0.2%
  % remaining at time point in minutes, 1440 min: 0%
[3]; 120 min
  % remaining at time point in minutes, 120 min: 0.7%
[7]; [10]
  Approximate Solubility in Excipient: Cottonseed oil: >414 mg/mL
  Approximate Solubility in Excipient: Sesame oil: >393.3 mg/mL
[8]; [11]
  Equilibrium solubility Water: <0.001 mg/mL

## CCCCCCCCCCCCCCCC(=O)OC1CCCn2c1nc(C)c(CCN1CCC(c3noc4cc(F)ccc34)CC1)c2=O (centres unmarked) [Paliperidone palmitate, reference compound]
[1]
  % remaining at time point in minutes, 0 min: 100%
[2]
  % remaining at time point in minutes, 0 min: 100%
[4]
  % remaining at time point in minutes, 0 min: 100%
[4]; 15 min
  % remaining at time point in minutes, 15 min: 92%

## C=C1CC[C@@]2(O)[C@H]3Cc4ccc(O)c5c4[C@@]2(CCN3CC2CC2)[C@H]1O5 [nalmefene, 17-cyclopropylmethyl-4,5α-epoxy-6-methylenemorphinan-3,14-diol]
[8]
  solubility thermodynamic: 0.025 mg/mL (≈ 73.7 µM)

Source: US10544154B2, “Opioid receptor antagonist prodrugs” (Nirsum Laboratories, Inc., priority 2017, dated 2020)
